ChEMBL document CHEMBL1136284, “An aminopyridazine-based inhibitor of a pro-apoptotic protein kinase attenuates hypoxia-ischemia induced acute brain injury” (Bioorg Med Chem Lett, 2003)

What was measured:
[1] = Inhibition of Death associated protein kinase
CaM kinase II = CaM kinase II (Homo sapiens, UniProt Q13557+Q13555+Q13554+Q9UQM7); assay: Inhibition of Calcium/calmodulin-dependent protein kinase type II; format: protein assay
Protein kinase C (PKC) = assay: Inhibition of Protein kinase C; format: protein assay
[2] = molecular target: cAMP-dependent protein kinase (PKA) (Homo sapiens, UniProt P22694+P17612+P22612); assay: Inhibition of Protein kinase A; format: protein assay
[3] = Displacement of ATP from Death associated protein kinase
Rattus norvegicus [4] = species on record: Rattus norvegicus; assay: Brain hemisphere weight loss 6 hr after HI injury in rats
Rattus norvegicus [5] = assay: Brain hemisphere weight loss after 5 mg/kg ip administration prior to HI injury in rats; settings: route intraperitoneal

IC50 (CaM kinase II) [µM] | IC50 (Protein kinase C (PKC)) [µM] | IC50 [2] [µM] | SMILES | IC50 [1] [µM] | Ki [1] [µM] | Ki [3] [µM] | Weight loss (Rattus norvegicus [4]) [%] | Weight loss (Rattus norvegicus [5]) [%]
> 100 | 3 | > 100 | N=c1ccc(-c2ccccc2)nn1CCCCCCCCCCC(=O)Nc1ccc(-c2ccccc2)nn1 | 22 | – | – | – | –
> 100 | 31 | > 100 | Cc1ccc(=N)n(CCCCCCCCCCC(=O)Nc2ccc(-c3ccccc3)nn2)n1 | > 100 | – | – | – | –
> 100 | > 100 | > 100 | Cc1cc(-c2ccccc2)nnc1NCCN1CCOCC1 [MINAPRINE] | > 100 | – | – | – | –
– | > 100 | > 100 | N=c1cc2c(nn1CCCCCCCCCCC(=O)Nc1ccc(-c3ccccc3)nn1)-c1ccccc1CC2 | 13 | 15 | 20 | 21.6 | 17.3
